Data published in US9718782B2, “TrkA kinase inhibitors, compositions and methods thereof” (MERCK SHARP & DOHME CORP, priority 2013, dated 2017).

Target: T1, TrkA receptor (Homo sapiens, UniProt P04629)
T1 construct: host or cells: U2OS (PathHunter, 'TrkA p75' cells)
Assay: DiscoverX PathHunter TrkA functional assay (NGF-stimulated U2OS cells)
Format: cell-based
Details: U2OS cells expressing TrkA-Prolink fusion and Shc1-EA; compound 1 hour, then EC80 NGF 3 hours; luminescence
Protocol: TrkA functional activity was measured using a DiscoverX PathHunter assay. In this assay, U2OS cells are express TrkA receptor as a fusion with the weakly complementing fragment of B-galactosidase, which DiscoverX calls “Prolink (PK)”; additionally, Shcl is fused with a larger fragment, which is called “Enzyme Acceptor (EA)”. Activation of the TrkA receptor, upon NGF addition, results in the kinase domain being phosphorylated, resulting in subsequent recruitment of Shcl-EA protein. That recruitment results in an active B-galactosidase enzyme that is detected by addition of a chemiluminescent substrate.
All reagents were purchased from DiscoverX, except for the receptor agonists (NGF, BDNF, NT3) which were purchased from Peprotech. Cells were expanded and frozen into cryovials (TrkA p75 @passage 13, 1.5×10^7 cells/vial; TrkC p75 @passage 11, 1.5×10^7 cells/vial in InVitrogen Recovery Cell Freezing media), and stored in the vapor phase of liquid nitrogen, and thawed immediately before use. Thawed cells were added to a 384-well plate (BD Falcon 384-well white/clear, TC surface 120 uL assay plates (353963), 20 uL of 0.375e6 cells/mL=>7500 cells/well), and allowed to incubate overnight. Compound (10 mM starting dose: 202.5 nL compound yielding 0.81% DMSO final in total assay volume and starting doses 81 uM) was added the following morning and allowed to incubate on cells for 1 hour. Then, 5 uL EC80 of agonist (NGF for TrkA; BDNF for TrkB; NT3 for TrkC) was added and allowed to incubate for 3 hours at room temperature. DiscoverX PathHunter detection reagent is added (12 uL to plate and components diluted in parts as per kit instructions) and the plate is further incubated for 1 hour in the dark. The plate is read via luminescence on the Perkin Elmer Envision.

T1 sequence (P04629 33-796): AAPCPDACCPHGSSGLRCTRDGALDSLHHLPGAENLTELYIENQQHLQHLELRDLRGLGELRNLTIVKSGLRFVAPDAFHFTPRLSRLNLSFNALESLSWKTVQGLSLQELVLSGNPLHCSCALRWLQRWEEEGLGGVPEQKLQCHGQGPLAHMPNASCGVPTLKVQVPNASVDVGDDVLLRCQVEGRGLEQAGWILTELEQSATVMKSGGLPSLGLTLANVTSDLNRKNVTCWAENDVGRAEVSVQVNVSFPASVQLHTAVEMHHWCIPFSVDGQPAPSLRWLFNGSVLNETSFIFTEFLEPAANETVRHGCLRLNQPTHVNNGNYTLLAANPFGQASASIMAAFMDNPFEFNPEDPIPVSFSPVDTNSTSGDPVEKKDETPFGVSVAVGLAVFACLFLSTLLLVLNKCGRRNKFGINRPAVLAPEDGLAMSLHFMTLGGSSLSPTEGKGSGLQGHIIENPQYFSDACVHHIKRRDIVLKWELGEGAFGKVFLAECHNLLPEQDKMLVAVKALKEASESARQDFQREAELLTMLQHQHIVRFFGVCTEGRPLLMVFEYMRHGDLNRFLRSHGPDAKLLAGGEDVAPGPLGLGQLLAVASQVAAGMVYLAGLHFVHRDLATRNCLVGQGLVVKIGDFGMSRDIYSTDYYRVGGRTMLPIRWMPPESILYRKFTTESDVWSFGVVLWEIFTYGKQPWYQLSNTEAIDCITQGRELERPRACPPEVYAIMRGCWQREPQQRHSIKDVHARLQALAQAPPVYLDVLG

IC50	SMILES
0.1 µM	Cn1ccnc1-c1cc(NC(=O)NC2c3ccccc3-c3ccccc32)n(C)n1 [Compound 85, 1-(9H-fluoren-9-yl)-3-[1-methyl-3-(1-methyl-1H-imidazol-2-yl)-1H-pyrazol-5-yl]urea]
0.25 µM	Cc1nnc(-c2cccc(NC(=O)NC3c4ccccc4-c4ccccc43)c2)n1C [Compound 86, 1-[3-(4,5-dimethyl-4H-1,2,4-triazol-3-yl)phenyl]-3-(9H-fluoren-9-yl)urea]
